{"source": "patent US11395819B1", "about": "“Antiviral and virucidal lung nebulizer compositions and related treatment methods” (priority 2021, dated 2022)", "origin": "cited, not measured here", "key": {"[1]": {"details": "given by inhalation"}, "[2]": {"tested_on": "divergent influenza A strains and influenza B strain"}, "[3]": {"tested_on": "avian H7N9 influenza virus", "details": "mice"}}, "note": "Counter-ions that a name gives are not always drawn.", "data": [{"smiles": "CN(C)CCC(c1ccc(Cl)cc1)c1ccccn1", "note": "(stereo not drawn) [Chlorpheniramine, chlorpheniramine maleate]", "values": [{"measurement": "bronchodilation", "setting": "[1]", "result": "significant bronchodilation"}, {"measurement": "inhibitory activity against influenza", "setting": "[2]", "result": "potent inhibitory activity"}, {"measurement": "protection from fatal challenge", "setting": "[3]", "result": "protects mice from fatal challenge"}]}]}
